For data set [1] the following is noted: deprotonated form is the nucleophile; no reference given; cited from earlier work.
For data set [2], the target named is T1, Mushroom tyrosinase (Agaricus bisporus, UniProt C7FF04). In words: Apparent inhibition of the diphenolase activity of tyrosinase (L-dopa as substrate, dopachrome at 475 nm). The class given is biochemical. Set-up: purchased Sigma (Madrid, Spain). To be noted: for type of inhibition of the diphenolase activity: Lineweaver-Burk, 3 mM arbutin; for degree of inhibition of the diphenolase activity (maximum reached): [E]0 = 30 nM, [L-dopa]0 = 0.5 mM, arbutin up to 30 mM. The procedure:
(§1) Mushroom tyrosinase (3130 U/mg) was obtained from Sigma (Madrid, Spain) and purified as previously described. Bradford’s method was used to determine the protein content using bovine serum albumin as standard.
(§2) Spectrophotometric assays were carried out with a PerkinElmer Lambda-35 spectrophotometer, online interfaced with a compatible PC 486DX microcomputer controlled by UV-Winlab software, where the kinetic data were recorded, stored, and analyzed.
(§3) The diphenolase activity of tyrosinase on L-dopa and the monophenolase activity on L-tyrosine were measured at 475 nm, the maximum absorption wavelength of dopachrome. To measure the activity of tyrosinase on L-tyrosine, the quantity of o-diphenol necessary to reach the steady state at time t = 0 was added. In this way, the characteristic lag period of the monophenolase activity, which complicates the measurement of the V0, was eliminated. This quantity is given by the equation R = [D]ss / [M]ss, where [D]ss and [M]ss are the concentrations of o-diphenol and monophenol respectively in the steady state with [M]ss ≈ [M]0. All the assays were carried out with R = 0.042.
All of the assays were carried out at 25°C, using 30 mM phosphate buffer at pH 7.0. Three repetitions of each experiment were made.
The degrees of inhibition (i) were calculated using tyrosinase, L-dopa, L-tyrosine and the following formula: i (%) = [(V0-Vi)/V0] x 100, where V0 is the initial rate of the control and Vi the initial rate in the presence of the target molecule. The initial rates were obtained by linear regression fitting of the initial portions of each experimental recording.

Data set [3] deals with T1, Mushroom tyrosinase. Briefly: Apparent inhibition of the monophenolase activity of tyrosinase (L-tyrosine as substrate, dopachrome at 475 nm). To be noted: Lineweaver-Burk, 3 mM arbutin. The class given is biochemical. The procedure:
as §1, §2
as §3, with “0.042. […]” for “0.042.”
The degrees of inhibition (i) were calculated using tyrosinase, L-dopa, L-tyrosine and the following formula: i (%) = [(V0-Vi)/V0] x 100, where V0 is the initial rate of the control and Vi the initial rate in the presence of the target molecule. […]

In data set [4] the target is T1, Mushroom tyrosinase. Briefly: Kinetic characterization of arbutins as substrates of tyrosinase in the presence of MBTH. The class given is biochemical. To be noted: [E]0 = 100 nM, [MBTH]0 = 0.2 mM, DMF 2%, pH 7.0, 25°C; for Km: read-out: KM (Michaelis constant) as substrate of tyrosinase. The procedure:
This adduct is oxidized by another molecule of o-quinone, leading to the accumulation of o-diphenol in the medium, so, the system reach the steady state. This assay method is highly sensitive, reliable, and precise. […] The sequence of reactions is described in S1B Fig. All of the assays were carried out at 25°C, using 30 mM phosphate buffer at pH 7.0. Three repetitions of each experiment were made. Initial rate values (V0) were calculated at different substrate concentrations. The assays were carried out in saturating conditions of O2 [47-49]. The data for V0 vs. [arbutin]0 were represented and fitted to the Michaelis-Menten equation using the Sigma Plot 9.0 program for Windows, providing the maximum rate (Vmax) and the Michaelis constant (KM). […] These compounds were solubilised by adding 2% (v/v) DMF to the reaction medium. […] KM and kcat values were obtained fitting by non-linear regression (Table 2) the initial rate values vs. the concentration of substrate to the Eq 1 (Fig 7 and 7 Inset).

Where only a bound is given, the exact number is not on record here.

T1 sequence (C7FF04 1-392): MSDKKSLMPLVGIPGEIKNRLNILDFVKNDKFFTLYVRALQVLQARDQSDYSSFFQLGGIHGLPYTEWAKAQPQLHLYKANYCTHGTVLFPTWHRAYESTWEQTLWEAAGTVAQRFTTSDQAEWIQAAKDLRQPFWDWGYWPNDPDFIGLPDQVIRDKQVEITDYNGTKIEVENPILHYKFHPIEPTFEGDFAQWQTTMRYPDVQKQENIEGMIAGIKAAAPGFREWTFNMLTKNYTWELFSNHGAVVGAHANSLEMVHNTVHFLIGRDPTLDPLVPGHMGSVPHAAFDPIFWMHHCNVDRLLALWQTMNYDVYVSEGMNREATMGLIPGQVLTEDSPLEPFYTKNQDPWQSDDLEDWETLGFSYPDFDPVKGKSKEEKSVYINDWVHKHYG

For orientation: pKa means the pH at which an ionisable group is half protonated. On to `Cl.Cn1c(=NN)sc2ccccc21.O` [MBTH, 3-methyl-2-benzothiazolinone hydrazone hydrochloride hydrate], for which the pKa in data set [1] is 5.8 ± 0.4.
As usually defined, the Km is the concentration of substrate that gives half-maximal velocity. For the compound `OC[C@H]1O[C@H](Oc2ccc(O)cc2)[C@H](O)[C@@H](O)[C@@H]1O` [α-Arbutin, (2R,3S,4S,5R,6R)-2-(hydroxymethyl)-6-(4-hydroxyphenoxy)oxane-3,4,5-triol], at Mushroom tyrosinase [2], the “type of inhibition of the diphenolase activity” value is “apparent competitive inhibition” and the “degree of inhibition of the diphenolase activity (maximum reached)” value is less than 100%. Also, the “type of inhibition of the monophenolase activity” value on Mushroom tyrosinase [3] was “apparent competitive inhibition”. Moreover, on Mushroom tyrosinase [4], the “kcat (catalytic constant) as substrate of tyrosinase” value was determined as 4.43 ± 0.33 s⁻¹ and the Km was determined as 6.5 ± 0.58 mM.
Turning to `OC[C@H]1O[C@@H](Oc2ccc(O)cc2)[C@H](O)[C@@H](O)[C@@H]1O` [β-Arbutin, (2R,3S,4S,5R,6S)-2-(hydroxymethyl)-6-(4-hydroxyphenoxy)oxane-3,4,5-triol], on Mushroom tyrosinase [2], the “type of inhibition of the diphenolase activity” value is given as “apparent competitive inhibition” and the “degree of inhibition of the diphenolase activity (maximum reached)” value is less than 100%. Besides, at Mushroom tyrosinase [3], the “type of inhibition of the monophenolase activity” value is listed as “apparent competitive inhibition”. Further, at Mushroom tyrosinase [4], the “kcat (catalytic constant) as substrate of tyrosinase” value worked out at 3.77 ± 0.29 s⁻¹ and the Michaelis-Menten constant (Km) is 3 ± 0.19 mM.

Source of the values: article PMC5426667, “Action of tyrosinase on alpha and beta-arbutin: A kinetic study” (PLoS ONE, 2017).
